Measurements published in paper PMC7979765, “trans-Translation inhibitors bind to a novel site on the ribosome and clear Neisseria gonorrhoeae in vivo” (Nature Communications, 2021).
Several values for one entry are separate records, joined by “and”; a condition that tells them apart may be missing. Identical values can stand only once. Like-named read-outs stand apart in the source and are kept apart here.

Columns and labels:
[1] = system: N. gonorrhoeae strain 49226 (ATCC); assay: Frequency of resistance; type: cell-based, Neisseria gonorrhoeae; conditions: selection at 4x and 8x MIC
[2] = Liver microsome stability, human; type: in vitro ADME
Method: To examine potential for first-pass metabolism of analogs in the liver, the stability of analogs in the presence of liver microsome preparations (Eurofins Discovery for human, dog and rat; Xenotech for mouse) was measured using the method of Kuhnz, et al.[50]. for murine studies and Oback for the dog, human and rat studies. The amount of parent compound remaining after incubation with microsomes in the presence of NADPH over a 30 min time range was measured using a reverse-phase liquid chromatography/mass spectroscopy method that was customized for each compound. Half-lives were calculated using linear regression analysis of several time points.

[3] = Serum protein binding, rat; type: in vitro ADME; conditions: Eurofins; for fraction unbound: rat, serum, read-out: Serum binding (% bound) Rat (converted)
Method: Serum protein binding was determined using an equilibrium dialysis method as described. The amount of compound in each chamber (buffer and serum) was measured using methods for reverse-phase liquid chromatography/mass spectroscopy methods that were customized for each compound.

[4] = system: Human primary hepatocytes; assay: Multiplexed cytotoxicity assay (nuclei, ROS, TMRE); type: cell-based
Method: (§1) Multiplexed cytotoxicity assay — Human primary hepatocytes were grown on collagen I coated optical plates, cultured in hepatocytes culture media in a humidified 5% CO2 atmosphere at 37 °C. Cells were incubated in the presence of MBX-4132 at 10 concentrations starting a 100 µM and serially diluted 3.16-fold for 24 h at 37 °C, incubated for 30 min with multiplexed fluorescent dyes (Hoescht, 6-carboxy-2’,7’-dichlorodihydrofluorescein diazetat, and TMRE) and imaged to allow visualization of nuclei, reactive oxygen species generation, and mitochondrial oxidation. A >3.5-fold induction of ROS was considered consistent with formation of ROS and a >2-fold change in TMRE signal indicated an increase or decrease in mitochondrial membrane potential.

[5] = system: mitochondrial membrane potential (MMP, TMRE signal); assay: Multiplexed cytotoxicity assay (nuclei, ROS, TMRE); type: cell-based, human; conditions: human, primary hepatocytes, 24 h, read-out: MMP inhibition (fold induction)
Method: as §1

[6] = system: reactive oxygen species (ROS) generation; assay: Multiplexed cytotoxicity assay (nuclei, ROS, TMRE); type: cell-based, human; conditions: human, primary hepatocytes, 24 h
Method: as §1

Cannabinoid CB1 = target: T1, Cannabinoid CB1 (Homo sapiens, UniProt P21554); assay: Receptor Profiling 217050; type: binding
T1 construct: purchased Eurofins Discovery Services (Panlabs safety panel)
Method: (§2) Several in vitro selectivity assays were performed at Eurofins Discovery Services using established methods and controls that behaved as expected (Supplementary Tables 5 and 6). […] For receptor panel profiling, MBX-4132 was evaluated at 10 μM and activity of >50% (agonist or antagonist; note that negative % inhibition indicates agonism) was scored as active.

Cannabinoid CB2 = target: T2, Cannabinoid CB2 (Homo sapiens, UniProt P34972); assay: Receptor Profiling 217100; type: binding
T2 construct: purchased Eurofins Discovery Services (Panlabs safety panel)
Method: as §2

Dopamine D2s = target: T3, Dopamine D2s (Homo sapiens, UniProt P14416); assay: Receptor Profiling 219700; type: binding
T3 construct: purchased Eurofins Discovery Services (Panlabs safety panel)
Method: as §2

Muscarinic M2 = target: T4, Muscarinic M2 (Homo sapiens, UniProt P08172); assay: Receptor Profiling 252710; type: binding
T4 construct: purchased Eurofins Discovery Services (Panlabs safety panel)
Method: as §2

Opiate Delta1 (OP1, DOP) = target: T5, Opiate Delta1 (OP1, DOP) (Homo sapiens, UniProt P41143); assay: Receptor Profiling 260130; type: binding
T5 construct: purchased Eurofins Discovery Services (Panlabs safety panel)
Method: as §2

T1 sequence (P21554 whole entry): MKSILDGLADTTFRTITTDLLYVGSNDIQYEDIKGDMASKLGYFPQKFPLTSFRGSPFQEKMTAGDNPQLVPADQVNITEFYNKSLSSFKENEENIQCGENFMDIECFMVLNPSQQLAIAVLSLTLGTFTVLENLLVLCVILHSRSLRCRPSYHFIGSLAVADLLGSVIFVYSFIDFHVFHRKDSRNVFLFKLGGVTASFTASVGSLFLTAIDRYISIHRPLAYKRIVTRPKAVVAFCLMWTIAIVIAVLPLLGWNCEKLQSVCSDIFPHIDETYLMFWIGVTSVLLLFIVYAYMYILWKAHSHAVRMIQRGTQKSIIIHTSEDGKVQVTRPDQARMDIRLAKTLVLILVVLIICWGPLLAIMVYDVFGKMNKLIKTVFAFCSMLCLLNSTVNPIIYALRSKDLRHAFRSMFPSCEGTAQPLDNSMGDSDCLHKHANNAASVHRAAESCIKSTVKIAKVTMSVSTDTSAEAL
T3 sequence (P14416 1-414 isoform P14416-2): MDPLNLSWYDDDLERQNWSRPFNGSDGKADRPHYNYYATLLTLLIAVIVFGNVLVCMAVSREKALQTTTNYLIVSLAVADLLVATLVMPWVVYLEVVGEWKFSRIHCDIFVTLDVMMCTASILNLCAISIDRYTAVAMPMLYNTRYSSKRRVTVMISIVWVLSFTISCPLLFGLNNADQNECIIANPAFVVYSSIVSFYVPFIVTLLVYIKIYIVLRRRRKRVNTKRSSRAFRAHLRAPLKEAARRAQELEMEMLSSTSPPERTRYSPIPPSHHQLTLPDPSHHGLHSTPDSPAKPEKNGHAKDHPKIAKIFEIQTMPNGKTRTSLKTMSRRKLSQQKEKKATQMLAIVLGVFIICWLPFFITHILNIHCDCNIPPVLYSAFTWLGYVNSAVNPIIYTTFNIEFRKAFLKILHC
T2 sequence (P34972 whole entry): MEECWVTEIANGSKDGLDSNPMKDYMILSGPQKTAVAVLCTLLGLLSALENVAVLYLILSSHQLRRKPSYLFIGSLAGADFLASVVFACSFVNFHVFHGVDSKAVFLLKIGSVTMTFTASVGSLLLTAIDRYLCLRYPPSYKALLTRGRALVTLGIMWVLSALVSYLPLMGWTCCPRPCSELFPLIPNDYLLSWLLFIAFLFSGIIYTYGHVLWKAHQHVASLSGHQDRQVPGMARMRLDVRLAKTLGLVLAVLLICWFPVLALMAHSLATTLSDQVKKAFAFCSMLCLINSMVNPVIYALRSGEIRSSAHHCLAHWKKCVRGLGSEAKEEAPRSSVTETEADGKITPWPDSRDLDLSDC
T4 sequence (P08172 whole entry): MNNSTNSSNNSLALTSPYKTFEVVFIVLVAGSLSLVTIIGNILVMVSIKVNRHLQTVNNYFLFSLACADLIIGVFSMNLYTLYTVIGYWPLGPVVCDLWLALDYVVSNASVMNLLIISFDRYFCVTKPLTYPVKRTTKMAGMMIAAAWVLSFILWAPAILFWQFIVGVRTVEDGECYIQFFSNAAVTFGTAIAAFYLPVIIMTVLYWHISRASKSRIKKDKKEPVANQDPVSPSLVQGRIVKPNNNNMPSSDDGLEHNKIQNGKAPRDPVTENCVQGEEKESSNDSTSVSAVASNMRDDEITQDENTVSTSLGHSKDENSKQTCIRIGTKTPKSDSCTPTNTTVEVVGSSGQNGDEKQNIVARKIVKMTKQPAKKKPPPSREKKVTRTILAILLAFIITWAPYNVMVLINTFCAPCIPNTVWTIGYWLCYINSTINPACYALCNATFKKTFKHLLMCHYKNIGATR
T5 sequence (P41143 whole entry): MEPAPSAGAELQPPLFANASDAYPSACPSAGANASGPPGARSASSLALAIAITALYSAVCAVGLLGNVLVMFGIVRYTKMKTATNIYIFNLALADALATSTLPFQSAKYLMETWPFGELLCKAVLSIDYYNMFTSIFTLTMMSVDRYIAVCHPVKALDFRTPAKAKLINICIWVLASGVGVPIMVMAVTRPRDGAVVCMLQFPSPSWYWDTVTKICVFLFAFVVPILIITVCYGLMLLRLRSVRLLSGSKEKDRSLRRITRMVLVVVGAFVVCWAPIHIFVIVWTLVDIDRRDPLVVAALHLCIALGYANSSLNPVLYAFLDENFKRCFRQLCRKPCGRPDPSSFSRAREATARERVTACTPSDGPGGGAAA

O=C(Nc1nnc(-c2ccc(F)cc2)o1)N1CCc2ccccc2C1 [MBX-4132]
frequency of spontaneous mutants resistant [1]: < 1.2 × 10^−9 | Microsomal stability (t½, min) Human ([2]; Reported value, Eurofins): >120 min | half-life ([2]; human, liver microsomes, read-out: Microsomal Stability (t1/2; min) Hum.): > 2 h | Serum binding (% bound) Rat ([3]; Replicate 1/2): 99.9% and 85.2% | fraction unbound ([3]; Reported value): 0.07 | fraction unbound ([3]; Average Value): 0.074 | Attached live cells (%) ([4]; 1.00E+00 μM, 24 h): 106.3% | Attached live cells (%) ([4]; 1.00E+00 μM, replicates): 108.6% and 104.0% | Attached live cells (%) ([4]; 1.00E+01 μM, 24 h): 97.7% | Attached live cells (%) ([4]; 1.00E+01 μM, replicates): 104.3% and 91.1% | Attached live cells (%) ([4]; 1.00E+02 μM, 24 h): 69.6% | Attached live cells (%) ([4]; 1.00E+02 μM, replicates): 78.3% and 60.9% | Attached live cells (%) ([4]; 1.00E-01 μM, 24 h): 96.7% | Attached live cells (%) ([4]; 1.00E-01 μM, replicates): 101.6% and 91.8% | Attached live cells (%) ([4]; 1.01E-02 μM, 24 h): 109.5% | Attached live cells (%) ([4]; 1.01E-02 μM, replicates): 115.4% and 103.6% | Attached live cells (%) ([4]; 3.16E+01 μM, 24 h): 89.5% | Attached live cells (%) ([4]; 3.16E+01 μM, replicates): 92.0% and 87.0% | Attached live cells (%) ([4]; 3.17E+00 μM, 24 h): 99.6% | Attached live cells (%) ([4]; 3.17E+00 μM, replicates): 103.9% and 95.3% | Attached live cells (%) ([4]; 3.17E-01 μM, 24 h): 114.0% | Attached live cells (%) ([4]; 3.17E-01 μM, replicates): 124.2% and 103.8% | Attached live cells (%) ([4]; 3.18E-02 μM, 24 h): 97.5% | Attached live cells (%) ([4]; 3.18E-02 μM, replicates): 106.1% and 88.9% | Attached live cells (%) ([4]; 3.18E-03 μM, 24 h): 105.6% | Attached live cells (%) ([4]; 3.18E-03 μM, replicates): 110.9% and 100.3% | effect on mitochondrial membrane polarity (in words) ([4]; high concentrations, human hepatocytes): no effect | fold induction at 24 h, 1 μM ([5]; 1.00E+00 μM): 0.9 | fold induction at 24 h, 10 μM ([5]; 1.00E+01 μM): 1.1 | fold induction at 24 h, 0.1 μM ([5]; 1.00E-01 μM): 1.2 | fold induction at 24 h, 0.0101 μM ([5]; 1.01E-02 μM): 1 | fold induction at 24 h, 31.6 μM ([5]; 3.16E+01 μM): 1.1 | fold induction at 24 h, 3.17 μM ([5]; 3.17E+00 μM): 1 | fold induction at 24 h, 0.317 μM ([5]; 3.17E-01 μM): 0.9 | fold induction at 24 h, 0.0318 μM ([5]; 3.18E-02 μM): 0.9 | fold induction at 24 h, 0.00318 μM ([5]; 3.18E-03 μM): 1 | fold induction at 24 h, 1 μM ([6]; 1.00E+00 μM): 1.2 | fold induction at 24 h, 0.1 μM ([6]; 1.00E-01 μM): 1.4 | fold induction at 24 h, 0.0101 μM ([6]; 1.01E-02 μM): 1.4 | fold induction at 24 h, 3.17 μM ([6]; 3.17E+00 μM): 1.1 | fold induction at 24 h, 0.317 μM ([6]; 3.17E-01 μM): 1.2 | fold induction at 24 h, 0.0318 μM ([6]; 3.18E-02 μM): 0.9 | inhibition at 10 µM (Cannabinoid CB1): -4% | inhibition at 10 µM (Cannabinoid CB2): -4% | inhibition at 10 µM (Dopamine D2s): 21% | inhibition at 10 µM (Muscarinic M2): 7% | inhibition at 10 µM (Opiate Delta1 (OP1, DOP)): 5%
